Measurements published in patent US11065231B2, “Compounds and methods for the targeted degradation of interleukin-1 receptor- associated kinase 4 polypeptides” (Arvinas Operations, Inc., priority 2017, dated 2021).

Experiments:
[1] = molecular target: T1, IRAK4 (Homo sapiens (Human), UniProt Q9NWZ3); test: Western blots of IRAK4 protein degradation; type: cell-based; settings: from western blots
[2] = molecular target: T2, IRAK1 (Homo sapiens (Human), UniProt P51617); test: Western blots of IRAK1 protein degradation; type: cell-based
T2 sequence (P51617 whole entry): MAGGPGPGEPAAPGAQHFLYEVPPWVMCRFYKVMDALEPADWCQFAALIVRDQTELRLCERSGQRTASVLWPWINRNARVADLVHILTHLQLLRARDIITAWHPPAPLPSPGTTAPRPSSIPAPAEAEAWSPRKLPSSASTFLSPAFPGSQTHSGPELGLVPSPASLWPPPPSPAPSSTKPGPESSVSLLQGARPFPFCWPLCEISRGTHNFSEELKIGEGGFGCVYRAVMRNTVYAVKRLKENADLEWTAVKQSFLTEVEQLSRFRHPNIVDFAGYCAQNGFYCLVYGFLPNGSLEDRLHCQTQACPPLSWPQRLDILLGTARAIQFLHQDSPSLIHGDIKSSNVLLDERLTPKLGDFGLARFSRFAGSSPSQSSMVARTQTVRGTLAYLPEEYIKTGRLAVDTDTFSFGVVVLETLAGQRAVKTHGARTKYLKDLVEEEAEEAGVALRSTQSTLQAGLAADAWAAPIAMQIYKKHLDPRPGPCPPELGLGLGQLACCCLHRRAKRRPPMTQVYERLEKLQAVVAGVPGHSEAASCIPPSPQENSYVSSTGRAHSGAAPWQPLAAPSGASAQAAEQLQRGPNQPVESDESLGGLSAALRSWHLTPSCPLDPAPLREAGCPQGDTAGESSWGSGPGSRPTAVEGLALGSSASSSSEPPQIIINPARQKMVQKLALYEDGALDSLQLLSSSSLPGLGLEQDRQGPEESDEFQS

[3] = molecular target: T1, IRAK4; test: Western blot assay for assessing degradation of IRAK4 in MCF7 cells; type: cell-based
How it was run: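 MCF7 cells were treated 24 h with serially diluted compound (0.1% DMSO final), then lysed in RIPA. IRAK4 and IRAK1 levels were measured by western blot with β-actin probed alongside. Percent degradation compared compound-treated with DMSO-treated lysates.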

[4] = molecular target: T2, IRAK1; test: Western blot assay for degradation of IRAK1 in MCF7 cells; type: cell-based
[5] = molecular target: T1, IRAK4; test: ELISA assay for IRAK4 degradation in MCF7 cells; type: cell-based; settings: Table 1, 24 hours
Procedure: Enzyme-Linked Immunosorbent Assay (ELISA) Assay for IRAK4 Degradation.
MCF7 cells, purchased from ATCC (Manassas, Va.), were used at a passage range of 2-19. Cells were prepared and treated with compounds for 24 hours, exactly as described above for the Western blots. The ELISA assay was performed using the kit and instructions described by Abcam (cat. #: ab213472, Abcam Biotechnology, Cambridge, Mass.). Table 1 below provides and compares the ELISA IRAK4 degradation data to the western blot IRAK 4 degradation data for Examples 2, 3, 4, and 5. Furthermore, FIG. 5 is a graph illustrating the ELISA IRAK4 degradation data.

[6] = molecular target: T1, IRAK4; test: Biochemical Z'-Lyte FRET assay for IRAK4 kinase inhibition; settings: 2 nM enzyme, 1 mM ATP, 2 μM substrate
How it was run: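 Z′-Lyte FRET phosphorylation of Ser/Thr 7 peptide (2 µM) by 2 nM recombinant IRAK4 at 1 mM ATP in HEPES pH 7.5 with MgCl2/MnCl2, after 10 min enzyme–compound preincubation; 1 h at room temperature, then 1 h development, 460/530 nm emission. Duplicate 12-point, 3-fold curves from 30 µM; IC50 from percent inhibition against ±100% controls.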

[7] = Table 5, IRAK4 degradation, 24 hour incubation, read-out: IRAK4 Dmax (%)
[8] = western blot, 24 hour incubation, read-out: Dmax (IRAK4 degradation)
[9] = Table 1, 24 hours, read-out: IRAK4 by western DC50
[10] = Table 5, IRAK4 degradation, 24 hour incubation, read-out: IRAK4 DC50
[11] = western blot, 24 hour incubation, read-out: DC50 (IRAK4 degradation)

T1 sequence (Q9NWZ3 whole entry): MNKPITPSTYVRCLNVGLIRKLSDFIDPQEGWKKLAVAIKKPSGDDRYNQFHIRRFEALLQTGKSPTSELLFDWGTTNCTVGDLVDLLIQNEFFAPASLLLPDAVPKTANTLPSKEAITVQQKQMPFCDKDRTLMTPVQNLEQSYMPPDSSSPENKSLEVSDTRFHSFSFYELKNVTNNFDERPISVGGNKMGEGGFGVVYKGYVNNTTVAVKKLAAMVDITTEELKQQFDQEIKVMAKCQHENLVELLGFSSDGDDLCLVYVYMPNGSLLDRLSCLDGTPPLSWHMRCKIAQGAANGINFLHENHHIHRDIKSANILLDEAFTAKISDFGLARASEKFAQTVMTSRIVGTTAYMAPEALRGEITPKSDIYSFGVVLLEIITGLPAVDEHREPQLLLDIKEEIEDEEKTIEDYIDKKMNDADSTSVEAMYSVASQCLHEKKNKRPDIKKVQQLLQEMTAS

Compound | Dmax [3, 7] | IC50 [6] | DC50 [3, 10] | also measured
O=C1CCC(N2C(=O)c3ccc(OCCOCCN4CCN(Cc5ccc6c(c5)nc(NC(=O)c5cccc(C(F)(F)F)c5)n6C5CCC(CO)CC5)CC4)cc3C2=O)C(=O)N1 (stereo not shown) [Exemplary Compound 2, N-(5-((4-(2-(2-((2-(2,6-dioxopiperidin-3-yl)-1,3-dioxoisoindolin-5-yl)oxy)ethoxy)ethyl)piperazin-1-yl)methyl)-1-((1s,4s)-4-(hydroxymethyl)cyclohexyl)-1H-benzo[d]imidazol-2-yl)-3-(trifluoromethyl)benzamide] |  |  |  | DC50 [1]: 9.7 nM; Dmax [1]: 71%; degradation of IRAK1 [2]: no significant degradation was observed
O=C1CCC(N2C(=O)c3ccc(OCCOCCN4CCN(Cc5ccc6c(c5)nc(NC(=O)c5cccc(C(F)(F)F)c5)n6C5CCC(CO)CC5)CC4)cc3C2=O)C(=O)N1 (stereo not shown) [compound 2, N-(5-((4-(2-(2-((2-(2,6-dioxopiperidin-3-yl)-1,3-dioxoisoindolin-5-yl)oxy)ethoxy)ethyl)piperazin-1-yl)methyl)-1-((1s,4s)-4-(hydroxymethyl)cyclohexyl)-1H-benzo[d]imidazol-2-yl)-3-(trifluoromethyl)benzamide] | 50 to 70% |  |  | IRAK4 by western % degraded ([3]; Table 1, 24 hours): 71%; Dmax [3, 8]: 71%; IRAK1 protein degradation [4]: no significant degradation was observed; IRAK4 by ELISA % degraded [5]: 76%
O=C1CCC(N2C(=O)c3ccc(OCCOCCOCCN4CCN(Cc5ccc6c(c5)nc(NC(=O)c5cccc(C(F)(F)F)c5)n6[C@H]5CC[C@@H](CO)CC5)CC4)cc3C2=O)C(=O)N1 (stereo partly shown) [compound 3, N-(5-((4-(2-(2-(2-((2-(2,6-dioxopiperidin-3-yl)-1,3-dioxoisoindolin-5-yl)oxy)ethoxy)ethoxy)ethyl)piperazin-1-yl)methyl)-1-((1s,4s)-4-(hydroxymethyl)cyclohexyl)-1H-benzo[d]imidazol-2-yl)-3-(trifluoromethyl)benzamide] | > 70% | < 30 nM | < 30 nM | IRAK4 by western % degraded ([3]; Table 1, 24 hours): 80%; DC50 [3, 9]: 23 nM; DC50 [3, 11]: 23 nM; Dmax [3, 8]: 80%; IRAK1 protein degradation [4]: no significant degradation was observed; IRAK4 by ELISA % degraded [5]: 86%
O=C1CCC(N2C(=O)c3ccc(OCCOCCOCCOCCN4CCN(Cc5ccc6c(c5)nc(NC(=O)c5cccc(C(F)(F)F)c5)n6[C@H]5CC[C@@H](CO)CC5)CC4)cc3C2=O)C(=O)N1 (stereo partly shown) [compound 4, N-(5-((4-(2-(2-(2-(2-((2-(2,6-dioxopiperidin-3-yl)-1,3-dioxoisoindolin-5-yl)oxy)ethoxy)ethoxy)ethoxy)ethyl)piperazin-1-yl)methyl)-1-((1s,4s)-4-(hydroxymethyl)cyclohexyl)-1H-benzo[d]imidazol-2-yl)-3-(trifluoromethyl)benzamide] | > 70% | < 30 nM | < 30 nM | IRAK4 by western % degraded ([3]; Table 1, 24 hours): 87%; DC50 [3, 9]: 25 nM; IRAK4 by ELISA % degraded [5]: 89%
O=C1CCC(N2C(=O)c3ccc(OCCOCCOCCOCCOCCN4CCN(Cc5ccc6c(c5)nc(NC(=O)c5cccc(C(F)(F)F)c5)n6[C@H]5CC[C@@H](CO)CC5)CC4)cc3C2=O)C(=O)N1 (stereo partly shown) [compound 5, N-(5-((4-(14-((2-(2,6-dioxopiperidin-3-yl)-1,3-dioxoisoindolin-5-yl)oxy)-3,6,9,12-tetraoxatetradecyl)piperazin-1-yl)methyl)-1-((1s,4s)-4-(hydroxymethyl)cyclohexyl)-1H-benzo[d]imidazol-2-yl)-3-(trifluoromethyl)benzamide] | 50 to 70% | < 30 nM | 30 to 100 nM | IRAK4 by western % degraded ([3]; Table 1, 24 hours): 76%; DC50 [3, 9]: 40 nM; IRAK4 by ELISA % degraded [5]: 80%
O=C1CCC(N2C(=O)c3ccc(OCCN4CCN(Cc5ccc6c(c5)nc(NC(=O)c5cccc(C(F)(F)F)c5)n6-c5ccccc5)CC4)cc3C2=O)C(=O)N1 (stereo not shown) [compound 55, N-(5-((4-(2-((2-(2,6-dioxopiperidin-3-yl)-1,3-dioxoisoindolin-5-yl)oxy)ethyl)piperazin-1-yl)methyl)-1-phenyl-1H-benzo[d]imidazol-2-yl)-3-(trifluoromethyl)benzamide] |  | ≥ 1000 nM | ≥ 1000 nM | 
COc1cccc(-n2c(NC(=O)c3cccc(C(F)(F)F)c3)nc3cc(CN4CCN(CCOc5ccc6c(c5)C(=O)N(C5CCC(=O)NC5=O)C6=O)CC4)ccc32)c1 (stereo not shown) [compound 56, N-(5-((4-(2-((2-(2,6-dioxopiperidin-3-yl)-1,3-dioxoisoindolin-5-yl)oxy)ethyl)piperazin-1-yl)methyl)-1-(3-methoxyphenyl)-1H-benzo[d]imidazol-2-yl)-3-(trifluoromethyl)benzamide] |  | ≥ 1000 nM | ≥ 1000 nM | 
COc1cc2nn(C3CCN(CCOCCOc4ccc5c(c4)C(=O)N(C4CCC(=O)NC4=O)C5=O)CC3)cc2cc1NC(=O)c1cccc(C(F)(F)F)n1 (stereo not shown) [compound 58, N-(2-(1-(2-(2-((2-(2,6-dioxopiperidin-3-yl)-1,3-dioxoisoindolin-5-yl)oxy)ethoxy)ethyl)piperidin-4-yl)-6-methoxy-2H-indazol-5-yl)-6-(trifluoromethyl)picolinamide] | 50 to 70% | < 30 nM | < 30 nM | 
COc1cc2nn(C3CCN(CCOCCOCCOc4ccc5c(c4)C(=O)N(C4CCC(=O)NC4=O)C5=O)CC3)cc2cc1NC(=O)c1cccc(C(F)(F)F)n1 (stereo not shown) [compound 59, N-(2-(1-(2-(2-(2-((2-(2,6-dioxopiperidin-3-yl)-1,3-dioxoisoindolin-5-yl)oxy)ethoxy)ethoxy)ethyl)piperidin-4-yl)-6-methoxy-2H-indazol-5-yl)-6-(trifluoromethyl)picolinamide] | 50 to 70% | < 30 nM | 300 to 1000 nM | 
COc1cc2nn(C3CCN(CCOCCOc4ccc5c(c4)CN(C4CCC(=O)NC4=O)C5=O)CC3)cc2cc1NC(=O)c1cccc(C(F)(F)F)n1 (stereo not shown) [compound 60, N-(2-(1-(2-(2-((2-(2,6-dioxopiperidin-3-yl)-1-oxoisoindolin-5-yl)oxy)ethoxy)ethyl)piperidin-4-yl)-6-methoxy-2H-indazol-5-yl)-6-(trifluoromethyl)picolinamide] | 50 to 70% | < 30 nM | < 30 nM | DC50 [1]: 3.5 nM; Dmax ([1]; read-out: Dmax): 73%; DC50 [3, 11]: 3.5 nM; Dmax [3, 8]: 73%
COc1cc2nn(C3CCN(CCOCCOCCOc4ccc5c(c4)CN(C4CCC(=O)NC4=O)C5=O)CC3)cc2cc1NC(=O)c1cccc(C(F)(F)F)n1 (stereo not shown) [compound 61, N-(2-(1-(2-(2-(2-((2-(2,6-dioxopiperidin-3-yl)-1-oxoisoindolin-5-yl)oxy)ethoxy)ethoxy)ethyl)piperadin-4-yl)-6-methoxy-2H-indazol-5-yl)-6-(trifluoromethyl)picolinamide] |  | < 30 nM | ≥ 1000 nM | 
COc1cc2nn(C3CCN(CC4CCN(CCOc5ccc6c(c5)C(=O)N(C5CCC(=O)NC5=O)C6=O)CC4)CC3)cc2cc1NC(=O)c1cccc(C(F)(F)F)n1 (stereo not shown) [compound 63, N-(2-(1-((1-(2-((2-(2,6-dioxopiperidin-3-yl)-1,3-dioxoisoindolin-5-yl)oxy)ethyl)piperadin-4-yl)methyl)piperidin-4-yl)-6-methoxy-2H-indazol-5-yl)-6-(trifluoromethyl)picolinamide] | > 70% | < 30 nM | 30 to 100 nM | 
O=C1CCC(N2C(=O)c3cccc(NCCOCCOCCN4CCN(Cc5ccc6c(c5)nc(NC(=O)c5cccc(C(F)(F)F)c5)n6[C@H]5CC[C@@H](CO)CC5)CC4)c3C2=O)C(=O)N1 (stereo partly shown) [compound 66, N-(5-((4-(2-(2-(2-((2-(2,6-dioxopiperidin-3-yl)-1,3-dioxoisoindolin-4-yl)amino)ethoxy)ethoxy)ethyl)piperazin-1-yl)methyl)-1-((1s,4s)-4-(hydroxymethyl)cyclohexyl)-1H-benzo[d]imidazol-2-yl)-3-(trifluoromethyl)benzamide] |  | < 30 nM | 300 to 1000 nM | 
N-(1-(3-((2-(2,6- dioxopiperidin-3-yl)-1,3- dioxoisoindolin-5- yl)oxy)ethyl)(methyl)amino) phenyl)-5-(piperadin-1- yl)methyl)-1H- benzo[d]imidazol-2-yl)-3- (trifluoromethyl)benzamide [compound 68] |  | ≥ 1000 nM | 300 to 1000 nM | IRAK4 Dmax (%) ([3]; Table 5, IRAK4 degradation, 24 hour incubation): C (50 ≥ C > 30)
N-(1-((1s,4s)-4-(13-((2-(2,6- dioxopiperidin-3-yl)-1,3- dioxoisoindolin-5-yl)oxy)- 2,5,8,11- tetraoxatetradecyl)cyclohexyl)- 5-(piperidin-1-ylmethyl)-1H- benzo[d]imidazol-2-yl)-3- (trifluoromethyl)benzamide [compound 42] |  | 300 to 1000 nM | ≥ 1000 nM | 
